The results in this text go back to US7176183B2, “Methods for treating and preventing damage to mucosal tissue” (University of Southern California, priority 1999, dated 2007).

Series [1] relates to Female C57B1/6 mice. The experiment in a line: Gastrointestinal mucositis induced by cyclophosphamide injection into mice, histological scoring. Also on record: key to Overall score: 0: No lesion; <10% Crypts distorted; 2: >10% Crypts distorted, no necrotic cells; 3: >10% Crypts distorted, occasional necrotic cell; 4: Same as 3 except more extensive; key to Epithelium score / Crypt Architecture score: 0: Normal; <10% Crypt distortion; 2: 10–50% Crypt distortion; 3: >50% Crypt distortion. The format is in vivo. To be noted: for Epithelium score / Crypt Architecture score / Overall score: AII(1–7) 100 μg/kg s.c., one line per animal. Here is the method: Female C57B1/6 mice were given an intraperitoneal injection of cyclophosphamide at concentrations of 200 or 250 mg/kg. After 2 days, the mice began treatment with either AII(1–7) (100 μg/kg), or phosphate buffered saline, both of which were given subcutaneously. The baseline weight of the mice was determined, and the mice were observed daily for 7–14 days, after which the animals were necropsied. Samples from the intestines were taken at four levels, in that the intestine was cut transversely at four places along the intestinal tract, from which histological preparations were made and evaluated, in order to reduce bias due to site selection. The samples were fixed in formalin for histological evaluation of crypt distortion and architecture, as well as epithelial attenuation. The crypt is a part of the gastrointestinal tract where the mucosal glands reside. Crypt distortion is a measure of the amount of disruption to the tissue that occurs as a result of mucosal damage. The epithelium is the cell/mucosal lining to the gastrointestinal tract. Epithelial attenuation is a measure of the amount of destruction to the epithelial lining.
Histological scoring was performed in a blinded fashion. The scores on the accompanying table were given on the following scale: […]

The test system of series [2] is patients with newly diagnosed breast cancer receiving doxorubicin and cyclophosphamide. In words: Phase I/II dose escalation study of AII(1–7) in chemotherapy patients: incidence of stomatitis (oral mucositis). Type of series: in vivo. The conditions noted are these: for Stomatitis (incidents of stomatitis associated with chemotherapy): chemotherapy patients (doxorubicin/cyclophosphamide), subcutaneous treatment, AII(1-7) n = 14, filgrastim n = 5. The protocol:
The Phase I/II study was a prospective, open-label, dose-escalation study comparing the effects of AII(1–7 (SEQ ID NO:4)) in patients with newly diagnosed breast cancer receiving doxorubicin 60 mg/m^2 and cyclophosphamide 600 mg/m^2 for at least 3 cycles of adjuvant chemotherapy following surgical tumor reduction. A filgrastim comparator arm was used to compare safety and response variables and to assess synergy of AII(1–7) with filgrastim (NEUPOGEN®, Amgen, Inc., Thousand Oaks, Calif.).
Patients who satisfied the inclusion/exclusion criteria received a once daily subcutaneous injection of the given AII(1–7) dose level for 7 days followed by a 1 week rest period prior to any chemotherapy (cycle 0) in the interval between tumor reduction and planned chemotherapy. Dose escalation within an individual patient was not permitted.
Following the rest period, a chemotherapy regimen containing doxorubicin 60 mg/m^2 and cyclophosphamide 600 mg/m^2 was initiated. AII(1–7) was administered for at least 10 days, or until the absolute neutrophil count (ANC)>1500/μL for 2 days, beginning two days after chemotherapy. Up to three chemotherapy cycles followed by AII(1–7) administration will be repeated every 21 days or as indicated by patient tolerance. Any patient that fails to achieve an ANC>1500/μL by day 15 (13 days of AII(1–7)) received a filgrastim rescue of 5.0 μg/kg/day until the ANC>1500/μL for 2 days.
During the conduct of the AII (1–7) clinical trial to examine the effect of subcutaneous injection of AII(1–7) on hematological recovery in new breast cancer patients receiving chemotherapy (doxorubicin/cyclophosphamide), adverse events that occurred were collected.
An adverse event (AE) was considered any unfavorable or unintended change in structure, function, signs, or symptoms temporally associated with the use of a medicinal product experienced by a person administered a pharmaceutical product, whether or not a causal relationship with the product has been established. During the conduct of this clinical trial, study personnel asked open-ended questions to obtain information about AEs at every visit. Signs and symptoms were graded by the Investigator using the WHO toxicity criteria. […] If there was stomatitis, it was graded on a four point scale as: […]

Series [3] can be described thus: Effectiveness test of AII fragments (test not specified).
The mark [4] stands for this setting: cyclophosphamide 200 mg/kg i.p., listed as A(1-7).
Where [5] appears, read: cyclophosphamide 250 mg/kg i.p., listed as A(1-7).

“And” between values parts separate entries of the source, which are not always exact repeats. Equal values may be shown once. “Also recorded” adds a separate entry of the source.

On to Asp-Arg-Val-Tyr-Ile-His-Pro [AII(1–7)], for which the Epithelium score was 1 (Mild Attenuation (<10%)) in series [1] (cyclophosphamide 200 mg/kg i.p.); 0 and 1 (Mild Attenuation (<10%)) (2×) in series [1] (setting [5]). Further, the “Crypt Architecture score” value in series [1] (setting [4]) was 0 and 1 (<10% Crypt distortion) (2×); in series [1] (setting [5]), 1 (<10% Crypt distortion) (2×) and 2 (10–50% Crypt distortion). Also, the Overall score was 0 and 1 (<10% Crypts distorted) (2×) in series [1] (setting [4]); 0 and 1 (<10% Crypts distorted) and 2 (>10% Crypts distorted, no necrotic cells) in series [1] (setting [5]). Besides, in series [1] (versus saline), the “Level of gastrointestinal mucositis by all histological scores” value is listed as “reduced”. Besides, in series [2] (chemotherapy patients), the “Reduction of the frequency of stomatitis relative to that observed with filgrastim treatment” value was 30%. Besides, in series [2], the “Stomatitis (incidents of stomatitis associated with chemotherapy)” value amounted to 40%. Further, in series [2] (subcutaneous administration, chemotherapy patients), the “Effect on stomatitis (oral mucositis) relative to control” value is reported as “reduced; also recorded: significantly decreased”.

Regarding His-Pro-Phe (HPF) [AII(6–8)], the Effectiveness result in series [3] was “not to be effective”.

On to Tyr-Ile-His-Pro-Phe (YIHPF) [AII(4–8)], for which the Effectiveness result in series [3] was “not to be effective; also recorded: ineffective”.

B1: filgrastim (protein, chains of the INN, looked up)
chain: MTPLGPASSLPQSFLLKCLEQVRKIQGDGAALQEKLCATYKLCHPEELVLLGHSLGIPWAPLSSCPSQALQLAGCLSQLHSGLFLYQGLLQALEGISPELGPTLDTLQLDVADFATTIWQQMEELGMAPALQPTQGAMPAFASAFQRRAGGVLVASHLQSFLEVSYRVLRHLAQP
notes: filgrastim (NEUPOGEN®, Amgen, Inc.), comparator arm
As for B1, the “Stomatitis (incidents of stomatitis associated with chemotherapy)” value in series [2] is reported as 60%.
